Measurements reported in patent EP1149092B1, “4- AND 5-ALKYNYLOXINDOLES AND 4- AND 5-ALKENYLOXINDOLES” (F. HOFFMANN-LA ROCHE AG, priority 1998, dated 2000).

Columns and labels:
IL-6 [1] = experiment: MG-63 Cell-Based Assay, IL-6 release after IL-1β stimulation (ELISA); conditions: Homo sapiens, MG63 cells, IL-1β stimulated, 24 hours with compound, read-out: IC50 (µM) in MG63 Cells IL6
From the text: (§1) The MG63 cell line, a human osteosarcoma cell line, was purchased from American Type Culture Collection (ATCC; Rockville, MD) and grown in the medium recommended by ATCC. When stimulated with human IL-1β , MG63 cells release matrix metalloproteinase 3 (MMP-3), an AP-1 dependent inflammatory mediator and IL-6, a NF-κB-dependent mediator. In this assay the ability of a test compound to block MMP-3 expression and not block IL-6 expression is an indication that the compound is a selective inhibitor of the AP-1 transcription pathway.
(§2) On day 1 the cells were plated at 2.5X10^4 cells/well in 96 well plates. After 24 hours, dexamethasone (the assay control) (Sigma, St. Louis, MO) and the test compounds were diluted to appropriate concentrations and added to the MG63 cells. The cells were incubated with the compounds for 24 hours after which the supernatants were removed and analyzed by ELISA.
(§3) In the ELISA, 96 well plates were coated with antibody to MMP-3 or IL-6. Supernatants were added to the coated plates and any antigen (MMP-3 or IL-6) in the supernatant bound to the antibody coated on the plates. The plates were then washed with PBS containing 0.05% Tween 20 (Sigma, St. Louis, MO) and the biotinylated secondary antibody was added. This secondary antibody binds to the already bound antigen creating a "sandwich effect". Plates were washed as described above and horseradish peroxidase (HRP)-streptavidin conjugate (Sigma, St. Louis, MO) was added to the plates. HRP-streptavidin bound to the biotin-antibody conjugate. The plates were washed and TMB substrate (Kirkegaard and Perry Labs, Gaithersburg, MD) was added to the wells. This substrate changes color in the presence of HRP-streptavidin. The intensity of the color (measured at 450 nm) is proportional to the amount of MMP-3 or IL-6 produced by the MG63 cells upon exposure to IL-1β and the test compounds. Optical density values were converted to concentration (pg/ml or Units/ml) based on a standard curve included in the assay. IC50 values for each test compound were determined from the linear regression of a plot of the logarithm of the concentration of compound versus amount of MMP-3 or IL-6 secreted. (The MMP-3 antibodies were prepared in-house using standard hybridoma technology and the IL-6 antibodies were obtained from either Genzyme, Cambridge, MA or Pharmingen, San Diego, CA.).

MMP-3 = experiment: MG-63 Cell-Based Assay, MMP-3 release after IL-1β stimulation (ELISA); conditions: Homo sapiens, MG63 cells, IL-1β stimulated, 24 hours with compound, read-out: IC50 (µM) in MG63 Cells MMP3
From the text: as §1, §2, §3

rat SAPK (isoform β) = rat SAPK (isoform β) (Rattus norvegicus, UniProt P49187); experiment: SAPK FlashPlate Assay (inhibition of cJun phosphorylation); format: biochemical; conditions: GST-cJun substrate, 30 minutes at 37 °C
rat SAPK (isoform β), sequence (P49187 whole entry, canonical isoform): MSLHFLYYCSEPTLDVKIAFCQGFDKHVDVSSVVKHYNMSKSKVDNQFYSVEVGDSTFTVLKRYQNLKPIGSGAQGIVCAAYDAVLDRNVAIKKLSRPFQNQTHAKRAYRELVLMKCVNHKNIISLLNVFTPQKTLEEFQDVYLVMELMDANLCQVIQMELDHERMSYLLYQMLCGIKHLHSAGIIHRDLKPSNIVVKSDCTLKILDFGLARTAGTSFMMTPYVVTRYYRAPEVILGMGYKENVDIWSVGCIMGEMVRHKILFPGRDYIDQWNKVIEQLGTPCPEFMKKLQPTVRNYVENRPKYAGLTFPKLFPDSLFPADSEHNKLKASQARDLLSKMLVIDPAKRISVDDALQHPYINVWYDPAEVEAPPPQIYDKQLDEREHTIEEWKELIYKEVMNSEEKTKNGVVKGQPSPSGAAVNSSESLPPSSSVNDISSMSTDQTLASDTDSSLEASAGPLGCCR
Description: "IC50" refers to the concentration of a particular 4- or 5-alkynyloxindole or 4-or 5-alkenyloxindole required to inhibit 50% of cJun phosphorylation, which is a measure of inhibition of SAPK activity. IC50 can be measured, inter alia, using the assay described herein in Example 102.
Human JNK is highly homologous to rat SAPK. To measure the inhibitory activity of test compounds, the compounds were tested in the rat SAPK assay.
For the SAPK assay, purified GST-cJun (a chimeric protein containing cJun, a natural substrate of JNK) was coated on 96 well FlashPlates (New England Nuclear, Boston, MA). Purified rat SAPK (isoform β, Kyriakis et al. supra) was preincubated with preparations containing MEKK-1 and MKK4 for 30 minutes at 37 °C in assay buffer containing 25 mM HEPES, pH 7.5, 150 mM NaCl, 20 mM MgCl2, 2 mM DTT, 0.001% Tween 20, 1 µM ATP freshly added. In the preincubation step, MEKK-1 phosphorylates and activates MKK-4, which in tum phosphorylates and activates SAPK. The activated SAPK was then added to the cJun coated FlashPlates along with ^33P-ATP (0.32 µCi per reaction) and test compounds. The plates were incubated for 30 minutes at 37 °C, then washed with PBS, 0.01% Tween 20, and counted in the Topcount scintillation counter (Packard Instrument Co., Downers Grove, IL). Dilutions of compounds were tested in duplicate in each assay. The percent inhibition of cJun phosphorylation (a measure of inhibition of SAPK activity) was determined by the following formula: [formula] where "test compound" refers to the average counts per minute of the test duplicates, "nonspecific" refers to the average counts per minute when no SAPK was added, and "total" refers to the average counts per minute when no compound was added.

TNF = experiment: U937 Cell-Based Assay, TNF release after LPS stimulation (ELISA); conditions: Homo sapiens, U-937; U937 cells, PMA then LPS stimulated, 24 hours
Description: (§4) The U937 cells, a human monocyte/macrophage cell line, was obtained from the ATTC and grown in the recommended medium. These cells when stimulated with lipopolysaccharide (LPS) release TNF, another inflammatory mediator implicated in the JNK pathway (Swantek et al., supra) and IL-6. In this assay the ability of a test compound to block TNF expression is evaluated.
(§5) The assay is very similar to the MG63 cell based assay except for the following modifications. The U937 cells were suspension cells but when stimulated with phorbol myristate acetate (PMA) (Sigma, St. Louis, MO) they become adherent. After PMA stimulation the cells were washed in cell culture medium and plated at 1X10^5 cells/well in 96 well plates. The following day the test compounds and dexamethasone control (Sigma, St. Louis, MO) were added to the cells for 1 hour of preincubation. Then the cells were stimulated with LPS (Sigma, St. Louis, MO). After an additional 24 hours of incubation the supematants were removed and assayed for TNF-α and IL-6 by ELISA. The IL-6 ELISA was run as described previously for the MG63 assay. The TNF ELISA was run using a kit supplied by Genzyme (Cambridge, MA).

IL-6 [2] = experiment: U937 Cell-Based Assay, IL-6 release after LPS stimulation (ELISA); conditions: Homo sapiens, U-937; U937 cells, PMA then LPS stimulated, 24 hours; read-out: IC50 (µM) in U937 Cells IL6
Description: as §4, §5

Compound | IC50 (IL-6 [1]) | IC50 (MMP-3) | IC50 (rat SAPK (isoform β)) | IC50 (TNF) | IC50 (IL-6 [2])
COc1cc[nH]c1/C=C1\C(=O)Nc2cccc(C#CC(O)c3cccc(OC)c3OC)c21 (racemic) [EE, rac-(Z)-1,3-Dihydro-4-[3-(2,3-dimethoxyphenyl)-3-hydroxy-1-propynyl]-3-[(3-methoxy-1H-pyrrol-2-yl)methylene]-2H-indol-2-one] | < 20 µM | < 12.5 µM | < 1 µM | – | –
COc1cc[nH]c1/C=C1\C(=O)Nc2cccc(C#CC(O)c3ccc4c(c3)OCO4)c21 (racemic) [N, rac-(Z)-4-[3-(1,3-benzodioxol-5-yl)-3-hydroxy-1-propynyl]-1,3-dihydro-3-[(3-methoxy-1H-pyrrol-2-yl)methylene]-2H-indol-2-one] | < 20 µM | < 12.5 µM | < 1 µM | < 8 µM | < 20 µM
COc1cc[nH]c1/C=C1\C(=O)Nc2cccc(C#CC(O)c3ccsc3)c21 (racemic) [BB, rac-(Z)-1,3-Dihydro-4-[3-hydroxy-3-(thiophen-3-yl)-1-propynyl]-3-[(3-methoxy-1H-pyrrol-2-yl)methylene]-2H-indol-2-one] | < 20 µM | < 12.5 µM | < 1 µM | < 8 µM | < 20 µM
COc1ccc(C(O)C#Cc2cccc3c2/C(=C/c2[nH]ccc2OC)C(=O)N3)cc1 (racemic) [H, rac-(Z)-1,3-Dihydro-4-[3-hydroxy-3-(4-methoxyphenyl)-1-propynyl]-3-[(3-methoxy-1H-pyrrol-2-yl)methylene]-2H-indol-2-one] | < 20 µM | < 12.5 µM | < 1 µM | – | –
COc1cc[nH]c1/C=C1\C(=O)Nc2cccc(C#CCOc3ccccc3)c21 [Y, (Z)-1,3-Dihydro-3-[(3-methoxy-1H-pyrrol-2-yl)methylene]-4-(3-phenoxy-1-propynyl)-2H-indol-2-one] | < 20 µM | < 12.5 µM | < 1 µM | – | –
C#CC(O)c1cccn1C (stereo not drawn) [Z, 3-Hydroxy-3-(1-methyl-pyrrol-2-yl)-1-propyne] | < 20 µM | < 12.5 µM | – | – | –
COc1ccc(C#Cc2cccc3c2/C(=C/c2[nH]ccc2OC)C(=O)N3)cc1 [G, (Z)-1,3-Dihydro-4-[(4-methoxyphenyl)ethynyl]-3-[(3-methoxy-1H-pyrrol-2-yl)methylene]-2H-indol-2-one] | < 20 µM | < 12.5 µM | < 1 µM | – | –
COc1ccc(/C=C/c2cccc3c2/C(=C/c2[nH]ccc2OC)C(=O)N3)cc1OC [QQQ, 1,3-Dihydro-4-[(E)-2-(3,4-dimethoxyphenyl)-ethenyl]-(Z)-3-[(3-methoxy-1H-pyrrol-2-yl)methylene]-2H-indol-2-one] | 20 µM | < 12.5 µM | < 1 µM | – | –
COc1cc[nH]c1/C=C1\C(=O)Nc2cccc(C#Cc3cccnc3)c21 [CCC, (Z)-1,3-Dihydro-3-[(3-methoxy-1H-pyrrol-2-yl)methylene]-4-[(3-pyridinyl)ethynyl]-2H-indol-2-one] | > 20 µM | < 12.5 µM | < 1 µM | – | –
COc1cc[nH]c1/C=C1\C(=O)Nc2cccc(C#CC(O)c3ccccc3)c21 (racemic) [FFF, rac-(Z)-1,3-Dihydro-4-(3-hydroxy-3-phenyl-1-propynyl)-3-[(3-methoxy-1H-pyrrol-2-yl)methylene]-2H-indol-2-one] | < 20 µM | < 12.5 µM | < 1 µM | – | –
COc1cc(C(O)C#Cc2cccc3c2/C(=C/c2[nH]ccc2OC)C(=O)N3)ccc1O (racemic) [O, rac-(Z)-1,3-Dihydro-4-[3-hydroxy-3-(4-hydroxy-3-methoxyphenyl)-1-propynyl]-3-[(3-methoxy-1H-pyrrol-2-yl)methylene]-2H-indol-2-one] | < 20 µM | < 12.5 µM | – | < 8 µM | < 20 µM
C#CC(O)c1ccc(O)cc1 (stereo not drawn) [P, 3-Hydroxy-3-(4-hydroxyphenyl)-1-propyne] | < 20 µM | < 12.5 µM | – | – | –
COc1cc[nH]c1/C=C1\C(=O)Nc2cccc(C#CC(O)c3ccc(N(C)C)cc3)c21 (racemic) [R, rac-(Z)-1,3-Dihydro-4-[3-(4-dimethylaminophenyl)-3-hydroxy-1-propynyl]-3-[(3-methoxy-1H-pyrrol-2-yl)methylene]-2H-indol-2-one] | < 20 µM | < 12.5 µM | < 1 µM | < 8 µM | 20 µM
COc1cc[nH]c1/C=C1\C(=O)Nc2cccc(C#Cc3ccccc3)c21 [D, (Z)-1,3-Dihydro-4-(phenylethynyl)-3-[(3-methoxy-1H-pyrrol-2-yl)methylene]-2H-indol-2-one] | 20 µM | < 12.5 µM | < 1 µM | – | –
C#CC(O)c1ccc[nH]1 (stereo not drawn) [CC, 3-Hydroxy-3-(1H-pyrrol-2-yl)-1-propyne] | < 20 µM | < 12.5 µM | – | – | –
COc1cc[nH]c1/C=C1\C(=O)Nc2ccc(NC(=O)Cc3cccs3)c(C#Cc3cccnc3)c21 [III, (Z)-N-[2,3-Dihydro-3-[(3-methoxy-1H-pyrrol-2-yl)methylene]-2-oxo-4-[(3-pyridinyl)ethynyl]-1H-indol-5-yl]-2-thiopheneacetamide] | 20 µM | < 12.5 µM | – | – | –
